88 compounds from a melting point compilation (Tetko et al.; mined from patent text by program, amines drawn as free bases though some values may be those of a salt) can be followed below.

Molecules are shown by their SMILES. Some results are limits rather than exact numbers.

In general, melting point refers to the temperature of the solid-liquid transition.

Take `CC(C)(C)OC(=O)NNCc1ccc(-c2ccccc2)cc1`: the melting point was 84 to 85 °C.
`CCOC(=O)CC[C@H](NC(=O)c1ccc(CCC2CNc3nc(NC(=O)C(C)(C)C)nc(O)c3C2)cc1)C(=O)OCC` (stereo partly drawn) displayed a melting point of more than 250 °C.
The compound `CCCCCCCCC(=CC=C(O)C(=O)OCC)C(=O)OCC` had a melting point of 58 °C.
The compound `COC(=O)CCc1cc2ccccc2n1S(=O)(=O)c1ccccc1` came in with a melting point of 95 to 99 °C.
`CCn1c(=O)c2[nH]c(/C=C/c3cc(OC)c(OC)cc3Br)nc2n(CC)c1=O` yielded a melting point of more than 285 °C.
Compound `CC(=O)OCCOCn1cnc2c(Cl)nc(Cl)nc21` gave a melting point of 96 to 99 °C.
`COc1ccc(-c2oc(CCCCCc3nnn[nH]3)nc2-c2ccc(Cl)cc2)cc1` came in with a melting point of 160 °C.
Compound `CCN(CC)C(=O)c1cnn(C)c1C(=O)Nc1ccn2nc(N3CCOCC3)nc2c1` gave a melting point of 165 to 167 °C.
With `O=Cc1cc(C#Cc2cccc(Br)c2)c[nH]1` the figure was 152 to 156 °C; with `C=CCn1c(=O)n(-c2cccc(C)n2)c2ncccc21`, 111 to 112 °C; with `COC[C@@H]1CCCN1S(=O)(=O)c1ccc2c(c1)C(=O)C1=NCC(C)(C)CN12`, 161 to 164 °C.
Compound `O=c1cncc2ccccc2n1` yielded a melting point of 213 °C.
Regarding `O=C1[C@@H](O)[C@@H]2OCCC[C@@H]2N1Cc1ccccc1` (relative stereo), the melting point was in the range of 136 to 138 °C.
`CSc1cc(C)nc(SC)c1NC(=O)CC=CC1=C(c2ccccc2)c2ccccc2OC1` registered a melting point of 204 to 206 °C.
`CCOC(=O)c1cnc2cc(F)c(F)cc2c1`: the melting point was 135 °C.
`O=C1CCC2(CCN1)Cc1ccccc1C2` showed a melting point of 164 to 165 °C.
`CC(C)C[C@H](CC(=O)OC(C)(C)C)C(=O)N1C(=O)OC[C@@H]1C(C)C` came in with a melting point of 143 to 144 °C.
`O=C(CNC(=O)c1cccc(Cl)c1)c1ccsc1` gave a melting point of 137 to 140 °C.
Consider `CN(C)c1cccc(C(=O)NC2CCN(C(c3ccccc3)c3ccccc3)CC2)c1[N+](=O)[O-]`, for which the melting point was determined as 176 °C.
Then `O=C(O)[C@H](CO)NC(=O)[C@@H]1CS[C@H](c2ccccc2O)N1C(=O)CCS`, with 140 to 145 °C; and `O=C(c1ccc(Sc2ccccc2)cc1)c1ccc(O)cc1O`, with 117 to 118 °C; and `Cc1cccc2c1N(CC(=O)N1CC3CCC(CC3)C1)C(=O)C(NC(=O)Nc1cccc(C(=O)OC(C)(C)C)c1)N=C2c1ccccc1F` (stereo not drawn), with 230 to 232 °C.
Then `Cc1ccc(C(=S)OCSC#N)cc1`, with 55 °C; and `CSc1ccc(Cn2c(C)c(CC(=O)O)c3cc(OCc4nc5ccccc5s4)ccc32)cc1`, with 186 to 187 °C.
Take `CCc1ccccc1NS(=O)(=O)c1cc(S(=O)(=O)Nc2ccccc2CC)c2cc(O)ccc2c1`: the melting point lay within 127 to 129 °C.
`C=C(Oc1cc(-n2c(=O)cc(C(F)(F)F)[nH]c2=O)c(F)cc1Cl)C(=O)OC` came in with a melting point of 171 to 173 °C.
For the compound `COc1ncc(OC)c(NC#N)n1`, the melting point was 164 to 171 °C.
The compound `O=C(NC(Cc1ccc(NCc2ccccc2)cc1)C(=O)O)c1cn2cc(-c3ccc(Cl)cc3)ccc2n1` (stereo not drawn) registered a melting point of 260 °C.
As to `C=CCC(C(=O)O)c1ccc(C(=O)c2cccs2)cc1` (stereo not drawn), the melting point amounted to 117 °C.
In turn, `Cc1nc(NCc2ccc(C)o2)c2nc(-c3ccccc3)cc-2[nH]1` registered a melting point of 125 to 128 °C.
With `OCCCc1ccncc1O` the figure was 123 to 126 °C; with `CN(C(=O)c1ccccc1)[Si](C)(C)N(C)C(=O)c1ccccc1`, 54 to 56 °C; with `O=C(O)C1=CC(CF)(CF)Oc2ccc(C(F)(F)C(F)(F)C(F)(F)F)cc21`, 162 to 163 °C.
Then `N#Cc1cnn2c1NCCC2c1cccc(C(F)(F)F)c1` (stereo not drawn), with 192 to 194 °C; and `Cn1c(C(N)=O)c2n(c1=O)-c1ccc(Cl)cc1C(c1ccccc1Cl)=NC2`, with 158 to 160 °C; and `COc1ccc(C2(Oc3c(F)c(F)c(F)c(F)c3F)CCN(C)CC2)cc1`, with 70 to 80 °C.
`Cc1ccccc1C(=O)c1cc2c(cc1O)CCC2` displayed a melting point of 61 to 62 °C.
The compound `O=C(O)COc1cc(F)c(-c2ccccc2)cc1C(=O)NCc1cccc([N+](=O)[O-])c1` registered a melting point of 210 to 211 °C.
For `O=C1c2cccc(Oc3ccc(Cl)cc3)c2C(=O)N1Cc1cccnc1`, the melting point lay in the range of 193 to 194 °C.
For the compound `CCCCNC(=O)Cc1ccc2c(c1)c(Cc1ccc(C(=O)NS(=O)(=O)c3ccccc3C)cc1OC)cn2CCC`, the melting point was 100 to 102 °C.
The compound `CN(C)Nc1cc(Oc2nn(C)c(C(F)(F)F)c2Cl)ccc1[N+](=O)[O-]` displayed a melting point of 72 to 76 °C.
On to `O=C(O)c1ccccc1Sc1ccccc1C(=O)O`, for which the melting point lay within 226 to 227 °C.
`COc1cc(CNc2n[nH]c3ncnc(Nc4cccc(Cl)c4)c23)cc(OC)c1` returned a melting point of 208 to 209 °C.
`CCc1nc2c(C)cc(C)nc2n1Cc1ccc2oc(-c3ccccc3NS(=O)(=O)C(F)(F)F)c(Br)c2c1` gave a melting point of 90 to 95 °C.
Compound `N#CC(=Cc1ccncc1)c1cccnc1` displayed a melting point of 150 to 152 °C.
Then `O=C(NN=Cc1ccc(Cl)cc1)c1[nH]c2ccccc2c1Cc1ccccc1`, with 221 to 222 °C; and `CNC=C1C(=S)C(C)(C)OC1(C)C`, with 115 to 117 °C; and `COc1cc(Nc2c(C#N)cnc3cc(-c4ccc(CN5CCN(C)CC5)cc4)sc23)c(Cl)cc1Cl`, with 226 to 228 °C.
Regarding `NC(=O)CC1CN(Cc2ccccc2)CCN1Cc1ccccc1` (stereo not drawn), the melting point is 114 °C.
As to `C[Si](C)(CCCc1nnc(N)nc1N)c1ccccc1`, the melting point was 132 to 133 °C.
For the compound `OC1C2CCN(CC2)C1C#Cc1ccc(-c2cccnc2)cc1` (stereo not drawn), the melting point lay within 189 to 190 °C.
Then `O=Cc1cc(Cc2cccnc2)ccc1O`, with 130 to 132 °C; and `Clc1ccc(C2CN(C(c3ccccc3)c3ccccc3)C2)cc1`, with 82 °C; and `CC(O)c1cc2c(=O)n(NS(C)(=O)=O)c(=O)[nH]c2cc1C(F)(F)F` (stereo not drawn), with 263 to 268 °C.
Then `COC(=O)c1cc(OC)c(NC(=O)OCc2ccccc2)c(OC)c1`, with 132 to 133 °C.
Take `COc1ccc(S(=O)(=O)C(C)(Cc2cccnc2)C(=O)NO)cc1` (stereo not drawn): the melting point came out at 98 °C.
Then `CSc1nccc(-c2cn(Cc3ccccc3C#N)c(=O)n2-c2ccc(F)cc2)n1`, with 141 to 142 °C.
In turn, `Cc1cccc(-c2ccc(NC(=O)OC(C)(C)C)c([N+](=O)[O-])c2)c1` came in with a melting point of 83 to 85 °C.
`COc1cc2c(c3c1OC(C)(C)C3)C(c1cccc(N(C)C(N)=O)c1)=NC(C)(C)C2` registered a melting point of 108 to 109 °C.
`Cc1cnc(N)cc1C(c1cc(F)ccc1F)S(=O)(=O)c1ccc(Cl)cc1` (stereo not drawn) returned a melting point of 188 to 189 °C.
Turning to `COC(=O)C(C)(C)OCc1cc(-c2ccc(Cl)s2)no1`, the melting point fell in the range of 128 to 130 °C.
In turn, `N#CC1Cc2cc3c(cc21)NCC3` (stereo not drawn) showed a melting point of 85 to 87 °C.
Compound `CC(C)CC(SCC1CCCCC1)c1c(O)cc(-c2ccccc2)oc1=O` (stereo not drawn) registered a melting point of 146 to 148 °C.
In the case of `OCc1ccc2c(c1)Nc1nccnc1S2`, the melting point lay within 187 to 189 °C.
For the compound `CC(=O)N1CCc2c(sc(CCN3CCC(c4noc5cc(F)ccc45)CC3)c2Br)C1`, the melting point fell in the range of 114 to 117 °C.
`COC12CC(CCN3CCC(c4c[nH]c5ccccc45)CC3)CN(C)C1Cc1c[nH]c3cccc2c13` (stereo not drawn) yielded a melting point of 153 to 156 °C.
In turn, `Nc1nc2c(c(=O)n1N)Cc1nc(N)n(N)c(=O)c1C2` registered a melting point of more than 300 °C.
For the compound `Cn1c([N+](=O)[O-])cnc1-c1nc(CCl)cs1`, the melting point lay in the range of 160 to 162 °C.
Consider `COc1ccc(C2=NN(c3cccc(C(=O)O)c3)C(=O)[C@H]3CC=CC[C@@H]23)cc1OC` (relative stereo), for which the melting point is 185 to 186 °C.
With `COc1cc(CS(=O)c2ccc(O)cc2)cc(OC)c1OC` (stereo not drawn) the figure was 153 °C; with `COC(=O)c1ccc(N2CCCC2=O)c([N+](=O)[O-])c1`, 159 to 161 °C.
Then `CCN(CC)Cc1cnc2cc(NC(=O)c3ccc(-c4ccc(F)cc4)cc3)c(C)cc2c1`, with 145 to 148 °C; and `O=[N+]([O-])c1c(O)c(O)cc2cc(N=Nc3ccccc3)ccc12`, with 238 to 244 °C; and `COC(=O)[C@H]1[C@@H](NC(=O)COc2ccccc2)C(=O)N1Cc1ccc(OC)cc1OC` (relative stereo), with 116 °C.
Regarding `c1ccc(N2CCN3C(NN4CCOCC4)=Nc4ccccc4N3CC2)cc1`, the melting point was 142 to 144 °C.
In turn, `N#CC1c2ccccc2Sc2ccccc21` came in with a melting point of 103 to 105 °C.
Compound `COc1ccc(C=Cc2ccc(CBr)c(Cl)c2)c(Cl)c1` returned a melting point of 106 to 108 °C.
With `CCN(CC)c1ccc(C2OC(=O)c3cc(N(C)C)ccc32)cc1` (stereo not drawn) the figure was 165 to 166 °C; with `O=C1NCCC(C(=O)c2ccc(Cc3ccc(F)cc3)o2)=C1O`, 166 to 168 °C; with `Cc1cnc(CNC(=O)c2sc(N3CCN(Cc4ccc(F)cc4)C3=O)nc2C)cn1`, 191 to 193 °C.
In the case of `CCOC(=O)c1c(N(C(C)=O)C(C)=O)c2cccnc2n(CC)c1=O`, the melting point fell in the range of 133 to 135 °C.
Then `COCc1cccc2oc(C(=O)O)c(C)c12`, with 164 to 166 °C.
With `CNS(=O)(=O)c1cc(C(=O)CCl)ccc1Cl` the figure was 153 °C.
For the compound `CCc1nc2c(N)nc3cc(OCCNC(=O)OC(C)(C)C)ccc3c2n1CC1CCOCC1`, the melting point was 200 to 201 °C.
With `O=P1(c2ccccc2)NCc2ccccc21` (stereo not drawn) the figure was 177 to 180 °C.
`COc1cc(COc2ccc(N)nn2)cc(OC)c1OC` gave a melting point of 142 to 144 °C.
`COc1cc(C=CNC(C)=O)ccc1OCC1CO1` (stereo not drawn) gave a melting point of 173 to 174 °C.
Compound `NC(=S)C1CCCc2cc3c(nc21)CCC3` (stereo not drawn) yielded a melting point of 118 °C.
